Assay results from patent publication US20140350119A1, “OPHTHALMIC COMPOSITION COMPRISING GERANYLGERANYLACETONE” (ROHTO PHARMACEUTICAL CO., LTD., priority 2012, published 2014).

Assays:
[1] = test system: IL-8 production by TNF-α in ARPE-19; test: Inhibitory effect on IL-8 production by TNF-α from retinal pigment epithelial cells; format: cell-based, human; conditions: all-trans form content 50 μM, 16 hours, TNF-α 4 hours, FIG. 5, n=3
Source text: Age-related macular degeneration is known to involve the accumulation of drusen under the retinal pigment epithelium. Drusen attract macrophages and macrophages secrete TNF-α. TNF-α acts on the retinal pigment epithelium and its peripheral tissue, and the cells subsequently produce a variety of cytokines and cause inflammation (Mol Vis. 2008 14: 2292-303). A typical cytokine that is involved in neutrophil migration and spreads inflammation is interleukin-8 (IL-8). In this experiment, the inhibitory effect of GGA on IL-8 production by TNF-α was examined using a human-derived retinal pigment epithelial cell line, ARPE-19. […]
After 4 hours of incubation, 150 μL of the cell culture supernatant was collected and stored at −80° C. […] Then, 100 μL of an equivalent mixture of a cell viability detection reagent Cell Titer-Glo and PBS was added to each well and the luminescence produced by the reaction with ATP in living cells was measured with a luminometer. From the measured luminescence, the cell viability was calculated by the following formula.
Cell viability (%)=100×[(luminescence of GGA-treated group)/(luminescence of base-treated group)]
The stored cell culture supernatant was allowed to warm to room temperature, and the IL-8 concentration was quantified with Human CXCL8/IL-8 Quantikine ELISA Kit (R&D Systems). […]

ARPE-19 = test: Protective effect for retinal pigment epithelial cells against oxidative stress by hydrogen peroxide; format: cell-based, human; conditions: all-trans form content 280 μM, 14 hours, then 750 μM hydrogen peroxide 2 hours, FIG. 4, n=3
Source text: The involvement of oxidative stress in ophthalmologic diseases has been widely reported. Such involvement has been observed in, in addition to glaucoma and cataract, retinal diseases such as retinal diseases due to diabetes, hypertension, hyperlipemia, etc., age-related macular degeneration, retinopathy of prematurity, retinal vascular occlusion, retinal light damage, etc. (Nippon Ganka Gakkai Zasshi. 112, 22-29 (2008)). In the retina, the retinal pigment epithelium exists in an environment in which reactive oxygen easily generates (Invest Opthalmol Vis Sci. 2006 July 47(7): 3164-3177.). […]
After 2 hours of incubation, the cell culture supernatant was removed, and 200 μL of PBS was added to each well and promptly removed. Then, 100 μL of an equivalent mixture of a cell viability detection reagent Cell Titer-Glo (Promega) and PBS was added to each well and the luminescence produced by the reaction with ATP in living cells was measured with a luminometer (GloMax; Promega). The cell viability was calculated from the measured luminescence by the following formula and the cytoprotective effect of GGA against oxidative stress by hydrogen peroxide was examined.
Cell viability (%)=100×[(luminescence of base- or GGA-treated group)/(luminescence of non-treated group)]

CC(=O)CC/C=C(\C)CC/C=C(\C)CC/C=C(\C)CCC=C(C)C [all-trans form, (5E,9E,13E)-6,10,14,18-tetramethyl-5,9,13,17-nonadecatetrae n-2-one]
Inhibitory effect on IL-8 production compared with GGA 6:4 [1]: significant inhibitory effect on IL-8 production | Cell viability compared with base-treated group (ARPE-19): significantly higher cell viabilities
